Data reported in PubChem BioAssay AID330 (DTP/NCI, 2004).
Several values for one entry are separate records, joined by “and”; a condition that tells them apart may be missing. Equal entries are not always repeated. Toxic doses and inconclusive results are not listed. Rule for the calls: active = survival T/C of 150% or more; inactive = T/C below 125% in these data.

Test system: P388 leukemia ip, CD2F1 mice, survival T/C
Test: NCI In Vivo Anticancer Drug Screen. Data for tumor model P388 Leukemia (intraperitoneal) in CD2F1 (CDF1) mice
Settings: endpoint: median survival time, higher = longer survival
Summary of the method: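 Mice carrying the transplanted tumor received test compound or vehicle. Survival was recorded in each group, and the value is the treated-group measurement divided by that of the vehicle-treated control group.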

[1] = dose: 50.0 mg/kg/injection, schedule: Q01DX009 (ip), vehicle: Klucel (hydroxypropylcellulose) (HPC)
[2] = dose: 100.0 mg/kg/injection, schedule: Q01DX009 (ip), vehicle: Klucel (hydroxypropylcellulose) (HPC)
[3] = dose: 200.0 mg/kg/injection, schedule: Q01DX009 (ip), vehicle: Klucel (hydroxypropylcellulose) (HPC)
[4] = dose: 60.0 mg/kg/injection, schedule: Q01DX005 (ip), vehicle: saline
[5] = dose: 50.0 mg/kg/injection, schedule: Q01DX009 (ip), vehicle: saline

Measured: T/C

CN(C)c1ccc(CN2CCCN(Cc3ccc(N(C)C)cc3)C2c2ccncc2)cc1
inactive: dose: 100.0 mg/kg/injection, schedule: Q01DX009 (ip), vehicle: saline with Tween-80 100 % of control | dose: 200.0 mg/kg/injection, schedule: Q01DX009 (ip), vehicle: saline with Tween-80 100 % of control | dose: 400.0 mg/kg/injection, schedule: Q01DX009 (ip), vehicle: saline with Tween-80 100 % of control

CCS1=C(C(C)=O)C(=O)O[C@H](C)C1 (stereo partly specified)
inactive: dose: 50.0 mg/kg/injection, schedule: Q01DX005 (ip), vehicle: saline 100 % of control | dose: 100.0 mg/kg/injection, schedule: Q01DX005 (ip), vehicle: saline 98 % of control | dose: 200.0 mg/kg/injection, schedule: Q01DX005 (ip), vehicle: saline 115 % of control

CC1(C)CC2(CC(C)(C)N1O)NC(=O)OC2=O
inactive: dose: 60.0 mg/kg/injection, schedule: Q01DX005 (ip), vehicle: saline with Tween-80 97 % of control | dose: 120.0 mg/kg/injection, schedule: Q01DX005 (ip), vehicle: saline with Tween-80 97 % of control | dose: 240.0 mg/kg/injection, schedule: Q01DX005 (ip), vehicle: saline with Tween-80 106 % of control

COCC(=O)Nc1ncc([N+](=O)[O-])s1
inactive: [1] 102 % of control | [2] 100 % of control | [3] 94 % of control

CC(C)Oc1nc(N2CCNCC2)nc2c1CCC2
inactive: dose: 15.0 mg/kg/injection, schedule: Q01DX005 (ip), vehicle: saline 101 % of control | dose: 30.0 mg/kg/injection, schedule: Q01DX005 (ip), vehicle: saline 94 % of control | [4] 101 % of control

C=C1C[C@@H](C2OC3OC(C)(C)OC3C2OCc2ccccc2)OC1=O (stereo partly specified)
inactive: dose: 50.0 mg/kg/injection, schedule: Q01DX005 (ip), vehicle: saline with Tween-80 116 % of control | dose: 100.0 mg/kg/injection, schedule: Q01DX005 (ip), vehicle: saline with Tween-80 124 % of control

C[Si](C)(C)CC[Si]12OCCN(C3CCCCC3O1)C1CCCCC1O2 (stereo unspecified)
inactive: dose: 50.0 mg/kg/injection, schedule: Q01DX005 (ip), vehicle: Klucel (hydroxypropylcellulose) (HPC) 94 % of control | dose: 100.0 mg/kg/injection, schedule: Q01DX005 (ip), vehicle: Klucel (hydroxypropylcellulose) (HPC) 104 % of control | dose: 200.0 mg/kg/injection, schedule: Q01DX005 (ip), vehicle: Klucel (hydroxypropylcellulose) (HPC) 105 % of control

Cc1n[nH]c(=O)c2ccccc12
inactive: dose: 100.0 mg/kg/injection, schedule: Q04DX003 (ip), vehicle: saline with Tween-80 91 % of control | dose: 200.0 mg/kg/injection, schedule: Q04DX003 (ip), vehicle: saline with Tween-80 99 % of control | dose: 400.0 mg/kg/injection, schedule: Q04DX003 (ip), vehicle: saline with Tween-80 107 % of control

[Cl][Pt+2][Cl].[NH-]CC(=O)O.[NH-]CC(=O)O
inactive: dose: 3.13 mg/kg/injection, schedule: Q01DX009 (ip), vehicle: water 100 % of control and 121 % of control | dose: 6.25 mg/kg/injection, schedule: Q01DX009 (ip), vehicle: water 113 % of control | dose: 12.5 mg/kg/injection, schedule: Q01DX009 (ip), vehicle: water 123 % of control and 124 % of control | dose: 25.0 mg/kg/injection, schedule: Q01DX009 (ip), vehicle: water 117 % of control | dose: 50.0 mg/kg/injection, schedule: Q01DX009 (ip), vehicle: water 118 % of control and 121 % of control

CSc1cccc(NC(=S)NN/C(=N/S(=O)(=O)c2ccccc2)N2CCCC2)c1
inactive: [1] 102 % of control | [2] 101 % of control | [3] 99 % of control

CCNC(C)(C)C(SSSC(c1ccc(Cl)cc1)C(C)(C)NCC)c1ccc(Cl)cc1 (stereo unspecified)
inactive: dose: 6.25 mg/kg/injection, schedule: Q01DX009 (ip), vehicle: saline 109 % of control | dose: 12.5 mg/kg/injection, schedule: Q01DX009 (ip), vehicle: saline 115 % of control | dose: 25.0 mg/kg/injection, schedule: Q01DX009 (ip), vehicle: saline 105 % of control | [5] 101 % of control

Nc1cc(N)n(C2=NCCN2)n1
inactive: [4] 104 % of control | dose: 120.0 mg/kg/injection, schedule: Q01DX005 (ip), vehicle: saline 104 % of control | dose: 240.0 mg/kg/injection, schedule: Q01DX005 (ip), vehicle: saline 98 % of control

O=C(C1CC2C=CC1C2)N1CCCCC1 (stereo unspecified)
inactive: [5] 90 % of control | dose: 100.0 mg/kg/injection, schedule: Q01DX009 (ip), vehicle: saline 91 % of control | dose: 200.0 mg/kg/injection, schedule: Q01DX009 (ip), vehicle: saline 98 % of control
